Test results: ChEMBL document CHEMBL2311336 (Bioorg Med Chem Lett, 2013)

Molecular target: Tumour suppressor p53/oncoprotein Mdm2 (Homo sapiens, UniProt Q00987)
Test: Inhibition of human His-tagged p53/GST-tagged MDM2 interaction after 60 mins by chemiluminescence assay
Type: protein assay

Sequence of Tumour suppressor p53/oncoprotein Mdm2 (P04637 whole entry): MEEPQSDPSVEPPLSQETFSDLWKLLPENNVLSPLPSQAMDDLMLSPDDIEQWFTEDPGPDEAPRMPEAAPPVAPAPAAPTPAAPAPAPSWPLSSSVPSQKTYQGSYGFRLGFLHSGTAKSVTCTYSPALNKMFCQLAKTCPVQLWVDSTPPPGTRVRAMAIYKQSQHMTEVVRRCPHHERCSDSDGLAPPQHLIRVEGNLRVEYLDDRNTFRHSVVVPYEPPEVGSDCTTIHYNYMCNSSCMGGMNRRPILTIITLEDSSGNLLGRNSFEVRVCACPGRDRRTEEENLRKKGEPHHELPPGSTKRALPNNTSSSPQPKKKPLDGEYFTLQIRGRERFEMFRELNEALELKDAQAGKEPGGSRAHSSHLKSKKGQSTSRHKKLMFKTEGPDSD
Sequence of Tumour suppressor p53/oncoprotein Mdm2 (Q00987 whole entry): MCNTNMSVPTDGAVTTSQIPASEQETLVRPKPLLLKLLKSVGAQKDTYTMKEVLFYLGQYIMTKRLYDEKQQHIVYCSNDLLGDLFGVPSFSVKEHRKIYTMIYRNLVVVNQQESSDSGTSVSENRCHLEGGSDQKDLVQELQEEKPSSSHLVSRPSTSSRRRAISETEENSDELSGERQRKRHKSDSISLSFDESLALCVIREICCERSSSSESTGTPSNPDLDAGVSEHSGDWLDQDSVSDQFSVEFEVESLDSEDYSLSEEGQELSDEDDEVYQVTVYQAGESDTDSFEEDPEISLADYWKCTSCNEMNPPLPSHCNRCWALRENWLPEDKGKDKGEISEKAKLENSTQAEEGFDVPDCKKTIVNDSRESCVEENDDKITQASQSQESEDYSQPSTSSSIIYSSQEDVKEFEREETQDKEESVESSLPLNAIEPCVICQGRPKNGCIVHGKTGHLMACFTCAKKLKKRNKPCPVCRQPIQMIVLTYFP

IC50 | Structure (SMILES)
23 nM | CC(C)C1=C(C(=O)N2CCC[C@H]2C(=O)N2CCN(C)CC2)SC2=N[C@@](C)(c3ccc(Cl)cc3)[C@@H](c3ccc(Cl)cc3)N21
66 nM | CC(=O)N1CCN(C(=O)[C@@H]2CCCN2C(=O)C2=C(C(C)C)N3C(=N[C@@](C)(c4ccc(Cl)cc4)[C@H]3c3ccc(Cl)cc3)S2)CC1
1500 nM | CC(C)C1=C(C(=O)N2CCNC(=O)C2)SC2=N[C@](C)(c3ccc(Cl)cc3)[C@H](c3ccc(Cl)cc3)N21
410 nM | CC(C)C1=C(C(=O)N2CCNC(=O)C2)SC2=NC(C)(c3ccc(Cl)cc3)C(c3ccc(Cl)cc3)N21 (racemic)
42 nM | CC(C)C1=C(C(=O)N(C)C)SC2=NC(C)(c3ccc(Cl)cc3)C(c3ccc(Cl)cc3)N21 (racemic)
26 nM | CC(C)C1=C(C(=O)N(C)C)SC2=N[C@@](C)(c3ccc(Cl)cc3)[C@@H](c3ccc(Cl)cc3)N21
79 nM | CC(C)C1=C(C(=O)N2CCC[C@H]2C(=O)N2CCNC(=O)C2)SC2=N[C@@](C)(c3ccc(Cl)cc3)[C@@H](c3ccc(Cl)cc3)N21
1100 nM | CNC(=O)C1=C(C(C)C)N2C(=NC(C)(c3ccc(Cl)cc3)C2c2ccc(Cl)cc2)S1 (racemic)
92 nM | CC(C)C1=C(C(=O)N2CCNC(=O)C2)SC2=N[C@@](C)(c3ccc(Cl)cc3)[C@@H](c3ccc(Cl)cc3)N21
200 nM | CC(C)C1=C(C(=O)N2CCCC2)SC2=NC(C)(c3ccc(Cl)cc3)C(c3ccc(Cl)cc3)N21 (racemic)
170 nM | CC(C)C1=C(C(=O)N2CCCC[C@H]2C(=O)N(C)C)SC2=NC(C)(c3ccc(Cl)cc3)C(c3ccc(Cl)cc3)N21 (mixture of isomers)
26 nM | CC(C)C1=C(C(=O)N2CCC[C@H]2C(=O)N2CCOCC2)SC2=N[C@@](C)(c3ccc(Cl)cc3)[C@@H](c3ccc(Cl)cc3)N21
940 nM | CC(C)C1=C(C(=O)N2CNC(=O)C2)SC2=NC(C)(c3ccc(Cl)cc3)C(c3ccc(Cl)cc3)N21 (racemic)
780 nM | CC(C)C1=C(C(N)=O)SC2=NC(C)(c3ccc(Cl)cc3)C(c3ccc(Cl)cc3)N21 (racemic)
37 nM | CC(C)C1=C(C(=O)N2CCC[C@H]2C(=O)N2C[C@@H](C)N[C@@H](C)C2)SC2=N[C@@](C)(c3ccc(Cl)cc3)[C@@H](c3ccc(Cl)cc3)N21
46 nM | COCCN(C)C(=O)[C@@H]1CCCN1C(=O)C1=C(C(C)C)N2C(=N[C@@](C)(c3ccc(Cl)cc3)[C@H]2c2ccc(Cl)cc2)S1

Molecular target: E3 ubiquitin-protein ligase Mdm2 (Homo sapiens, UniProt Q00987, L33E)
Test: Inhibition of human His-tagged p53 (1 to 132 amino acid residues)/GST-tagged MDM2 L33E mutant (25 to 108 amino acid residues) interaction by HTRF assay

Sequence of E3 ubiquitin-protein ligase Mdm2 (Q00987 whole entry L33E, the tested form may be a part): as the sequence (Q00987 whole entry) above, with L33E counted along it

IC50 | Structure (SMILES)
140 nM | CC(C)C1=C(C(=O)N2CC[C@H]2C(=O)N(C)C)SC2=N[C@@](C)(c3ccc(Cl)cc3)[C@@H](c3ccc(Cl)cc3)N21
